Patent publication US20250304952A1, “DNA ELEMENT RESPONSIVE TO EXTRACHROMOSOMAL DNA IN CANCER CELLS” (The Board of Trustees of the Leland Stanford Junior …, priority 2021, published 2025)

Assays:
Type in all cases: cell-based, human
MYC in SNU16 = assay: Oncogene RNA measured by RT-qPCR in SNU16 (MYC); conditions: 500 nM JQ1, 6 hours
Method: Cells were then treated for 6 hours with 500 nM JQ1 in DMSO unless otherwise indicated (Sigma-Aldrich SML1524) or an equivalent volume of DMSO.
RNA was extracted using RNeasy Plus mini Kit (QIAGEN 74136). Purified RNA was quantified by Nanodrop (Thermo Fisher). For RT-qPCR, 50 ng of RNA, 1× Brilliant II qRT-PCR mastermix with 1 μL RT/RNase block (Agilent 600825), and 200 nM forward and reverse primer were used. Each Ct value was measured using Lightcycler 480 (Roche) and each mean dCt was averaged from duplicate qRT-PCR reaction and performed in biological triplicate. Relative MYC RNA level (RT-qPCR primers MYC_exon3_fw and MYC_exon3_rv) was calculated by ddCt method compared to 18S and GAPDH controls (RT-qPCR primers GAPDH_fw, GAPDH_rv, 18S_fw, 18S_rv). P values were calculated using a Student's t-test by comparing the relative fold change of biological triplicates.

[1] = system: MYC transcription from ecDNA in COLO320-DM; assay: MYC transcription probability by joint nascent RNA and DNA FISH; conditions: 500 nM JQ1, 6 hours, RNA normalized to ecDNA copy number
From the text: To quantify the MYC gene expression on the ecDNAs, we ordered the RNA FISH probes conjugated with a Quasar 570 dye (Biosearch Technologies) targeting to the intronic region of human (hg19) MYC gene for detection of nascent RNA transcript. We also ordered the RNA FISH probes conjugated with a Quasar 670 dye targeting to the exonic region of human MYC gene for detection of both mature and nascent RNA transcripts. […]
To characterize the ecDNA hub shape and size, we employed the synthetic model—Surfaces object from Imaris (version 9.1, Bitplane) and applied a Gaussian filter (σ=1 voxel in xy) and background subtraction for optimal segmentation and quantification of ecDNA hubs. ecDNA hubs containing connected voxels were sorted by size and singleton ecDNAs were separated from ecDNA hubs (minimal two ecDNA molecules).
To measure the number of ecDNA or nascent transcripts, we localized the voxels corresponding to the local maximum of identified DNA or RNA FISH signal using the Imaris spots function module. We validated the accuracy of interphase ecDNA counting by comparing to quantification of ecDNA number by metaphase FISH as well as copy number estimated by whole genome sequencing FIG. 5f). […]

[2] = system: covalently-linked MYC copies in COLO320-HSR; assay: Interphase DNA FISH of chromosomal MYC amplicon (HSR), autocorrelation g(r); conditions: 500 nM, 6 hours

Cc1sc2c(c1C)C(c1ccc(Cl)cc1)=N[C@@H](CC(=O)OC(C)(C)C)c1nnc(C)n1-2 [JQ1]
ecDNA-derived transcription of MYC (MYC in SNU16): reduced | reduction of MYC transcription probability per ecDNA copy [1]: four-fold | spatial distribution of covalently-linked MYC copies [2]: did not alter
